Experimental findings from patent US7504384B2 (priority 2000, dated 2009) are described below.

Several values for one entry are separate records, joined by “and”; a condition that tells them apart may be missing. Equal values may be shown once. Read-outs that look alike come from different tables or passages of the source.

Data set [1] deals with OVA-sensitized asthmatic rats. Kind of data set: OVA-induced broncho-constriction (Penh) in asthmatic rats. The data set is classed as in vivo, Brown Norway rats. How it is done:
Subjects: Inbred Brown Norway male rats (4 weeks old) obtained from Harlan, USA, were used in this study. The Hebrew University Animal Welfare Committee approved all protocols.
In mode 1, all groups (5 rats in each) were treated and challenged as described above on day 14, 16, 18 and 20, and pulmonary function (Penh) was assessed on day 20 before and 5 min after challenge (EAR).
In mode 2, each group (10 rats in each) were treated and challenged from day 14, every other day, until day 45. Pulmonary function (Penh) was assessed on day 20 before and 5 min and 8 h after challenge, corresponding to early and late asthmatic reaction (EAR and LAR, respectively).
Assessment of broncho-constriction: Unrestrained conscious rats were placed in a whole-body plethysmograph (Buxco Electronics Inc., Troy, N.Y., USA) connected to a pneumotach (EMKA Technologies, Type 0000) at one end, and to a 10 ml bottle at the other end. The pneumotach was connected to a preamplifier (model MAX2270, Buxco Electronics). Analogue signals from the amplifier were converted to a digital signal by an AD card (LPM-16 National Instruments, Austin, Tex., USA). Broncho-constriction measures were expressed as the enhanced pause (Penh). Penh=(PEF/PIF)*((Te−Tr)/Tr), where PEF=Peak Expiratory Flow, PIF=Peak Inspiratory Flow, Te=Expiratory Time, Tr=Relaxation Time=time of the pressure decay to 36% of total box pressure during expiration.

The test system of another data set is mice. Kind of data set: Long-term (30 weeks) toxicity test. In kind it is in vivo. How it is done:
For the long-term toxicity test a group of 6 mice received an i.p injection of 100 mg Lipid-conjugate (Compound XXII)/kg body weight 3 times a week for 30 weeks (e.g., 180 mg total to a mouse weighing 20 g). Toxicity was evaluated as for Table 8.1. The results of the long-term toxicity test are depicted in Table 8.2.

Data set [2] deals with cysteinyl leukotrienes (LTC4, LTD4 and LTE4). The data set can be described thus: Cysteinyl leukotriene level in BAL of OVA-induced asthmatic rats.
The subject of data set [3] is nitric oxide (NO) production by BAL macrophages. The data set is classed as in vivo, Brown Norway rats. To be noted: compared to asthmatic and naïve rats, p<0.001; macrophages cultured without further treatment.
Another data set concerns Human RBC. Kind of data set: Prevention of hemolysis of human red blood cells. In kind it is cell-based. The note with it: 20 min, 10 μM Lipid-conjugate, None = 1.000. The method, then: Hemolysis, the breakdown of red blood cells (RBC), may be either a primary disease in itself, or a syndrome associated with another disease or physiological insult. In order to determine the effect of Lipid-conjugates on hemolysis, red blood cells were incubated in the presence of known membrane destabilizing agents and the release of hemoglobulin into the extracellular medium was detected.
Human RBC were washed in saline and suspended in Hanks buffer (pH 7.4). Hemolysis was induced in the absence or presence of 10 μM Lipid-conjugates by treatment with either 5 U/ml streptolysin O (SLO), 25 U/ml streptolysin S (SLS), or 5 μg/ml lysophosphatidylcholine (lyso-PC) for 20 min. The cell membranes were spun and the hemoglobin content in the supernatant was determined by measuring the O.D. at 540 nm (Table 5.1).

Data set [4] deals with Influenza A (H3N2 strain) virus. The data set is classed as cell-based, Influenza type A, A/Panama/2007/99 (H3N2).
The subject of data set [5] is Influenza B virus. In kind it is cell-based, Influenza type B, B/Hong Kong/330/02. The note with it: high concentration, Neutral Red Uptake Assay.
Data set [6] concerns Influenza A (H1N1 strain) virus. In kind it is cell-based, Influenza type A, A/New Caledonia/20/99 (H1N1).
Data set [7] deals with Respiratory syncytial virus. The data set is classed as cell-based, strain A2.
The test system of data set [8] is Madin Darby canine kidney (MDCK) cells. Kind of data set: Cytotoxicity assay, visual observation, uninfected cells. The data set is classed as cell-based. To be noted: high concentration. How it is done:
Uninfected cells were treated with each concentration of test compound in duplicate and run in parallel with the infected, treated wells in the CPE inhibition tests described above. The toxicity control cells (uninfected and treated) were examined under a light microscope for changes in cell appearance compared to control cells (uninfected, untreated) on the same plate as described above. The 50% cell inhibitory (cytotoxic) concentrations (IC50) were calculated by regression analysis.

The test system of another data set is Punta Toro virus. The data set is classed as cell-based, strain Adames.
In data set [9] the test system is Influenza B virus. The data set is classed as cell-based, Influenza type B, B/Hong Kong/330/02. The note with it: high concentration; Visual Observation Assay; Influenza B.
Data set [10] concerns Madin Darby canine kidney (MDCK) cells. The data set is classed as cell-based. To be noted: high concentration, Neutral Red Uptake Assay.
The test system of data set [11] is Respiratory syncytial virus. In kind it is cell-based, strain A2. This is another data set of the same source.
Setting [12] is: 100 mg/kg i.p. 3 times/week for 30 weeks.
Setting [13] is: listed as Influenza A (H1N1 strain).
Setting [14] is: listed as Influenza A (H3N2 strain).

In the case of “dipalmitoyl-PE conjugated to HA [Compound XXII]”, in [1] (aerosol inhalation, 5 min after challenge, compared with Naïve or Dx-treated groups, p<0.01 vs Asthmatic), the “broncho-constriction (percent change of Penh), early asthmatic reaction (EAR)” value is given as “no significant difference”. The “broncho-constriction (percent change of Penh), late asthmatic reaction (LAR)” value in data set [1] (aerosol inhalation, 8 h after challenge, compared with Naïve or Dx-treated groups, p<0.01 vs Asthmatic) was “no significant difference”. The “allergen-induced broncho-constriction (Penh), inhaled before OVA challenge” value in data set [1] (already asthmatic rats, nebulized 1 mg/ml for 5 minutes, 30 minutes before challenge) is reported as “effective in preventing allergen-induced broncho-constriction”. Moreover, the “broncho-constriction (Penh), inhaled after OVA challenge” value in [1] (asthmatic rats, nebulized 1 mg/ml for 5 minutes, thirty minutes after challenge) is “reverse broncho-constriction”. Further, the mortality result in the data set on mice (100 mg/kg i.p. 3 times a week for 30 weeks) was “no incidents of mortality”. For the same substance, the “changes in body weight, red or white blood cell count, or hematocrit” value with mice (100 mg/kg i.p. 3 times a week for 30 weeks, compared to control, untreated mice) is “no significant changes”. In addition, in the data set with mice (setting [12]), the “Body weight (g) Final” value is 39.0 ± 2.7 g, the Hematocrit % came to 43.4 ± 4.9%, the “RBC × 10^6” value is on record as 11.7 ± 0.7 × 10^6 and the “WBC × 10^3” value was 8.1 ± 15 × 10^3. For the same substance, in [2] (SC administration, compared with Naive rats), the “CysLT levels in BAL” value is listed as “no significant difference”. Moreover, the “CysLT levels in BAL” value in data set [2] (aerosol inhalation, compared with Naïve rats, P<0.01 vs Asthmatic) is reported as “no significant difference”. For the same substance, the “NO level, BAL macrophages” value in data set [3] is “reduced”.
One may read the EC50 as the concentration giving half of the maximal effect. A lower EC50 goes with greater potency. The IC50 is the concentration that gives 50% inhibition. Low values mean inhibition by little substance, high ones a need for much substance. Regarding “dipalmitoyl-phosphatidyl-ethanolamine conjugated to heparin [Compound XXIV]”, in the data set on Human RBC (5 μg/ml lysophosphatidylcholine), the “HEMOLYSIS (O.D. AT 540 nm), Lyso-PC” value stood at 0.002 O.D. Moreover, in the data set with Human RBC (5 U/ml streptolysin O), the “HEMOLYSIS (O.D. AT 540 nm), SLO” value is listed as 0.002 O.D. Further, the “HEMOLYSIS (O.D. AT 540 nm), SLS” value in the data set on Human RBC (25 U/ml streptolysin S) came out at 1.100 O.D. For the same substance, the “SI (IC50/EC50)” value was 2.9 and 2 in data set [4]; 20 and 11 in [6]; 0 with Punta Toro virus. Also, the EC50 in data set [4] (high concentration, Visual Observation Assay, Influenza A (H3N2 strain)) was 200 µg/mL; with Influenza B virus [5] it was 450 µg/mL; in [6] (high concentration, Visual Observation Assay, Influenza A (H1N1 strain)), 400 µg/mL; in data set [7] (low concentrations, Neutral Red Uptake Assay, Respiratory Syncytial A), >100 µg/mL; with Punta Toro virus (low concentrations, Neutral Red Uptake Assay, Punta Toro A), >100 µg/mL; with Influenza B virus [9] it was 350 µg/mL. This substance came in with an EC50 in data set [11] of 4 µg/mL. Also, in data set [7] (lower range of doses), the “activity vs RSV by neutral red assay” value is listed as “not active”. The IC50 stood at 35 µg/mL in [8] (setting [13]); 100 µg/mL in data set [8] (setting [14]); 90 µg/mL in data set [8] (listed as Influenza B); 64 µg/mL in data set [10] (setting [13]); 110 µg/mL in data set [10] (setting [14]); 220 µg/mL in data set [10] (listed as Influenza B).
